In US10294202B2, “Pyrrolidinones as herbicides” (FMC Corporation, priority 2013, dated 2019):
Where two headings read alike, the source gives them in different places.

Assays:
barnyardgrass [1] = test: Test C pre-/postemergence herbicide test; format: in vivo, Echinochloa crus-galli; settings: for Barnyardgrass plant response rating: scale 0 to 100, 0 is no effect and 100 is complete control
Method in brief: (§1)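 Pre-emergence: seeds sown in loam/sand blend and treated with compound in surfactant-containing solvent. Post-emergence: plants at 2–18 cm (1- to 4-leaf stage) in peat-based medium sprayed with the same formulation. Visual rating versus controls after 13–15 days in greenhouse, scale 0 (no effect) to 100 (complete control).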

soybean = test: Test C pre-/postemergence herbicide test; format: in vivo, Glycine max
Method in brief: as §1

pigweed = test: Test A pre-/postemergence herbicide test; format: in vivo, Amaranthus retroflexus
Method in brief: (§2)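 Seeds in loam–sand blend received preemergence directed soil spray; separately, plants 2–10 cm at one- to two-leaf stage received postemergence spray, both with test chemicals in non-phytotoxic solvent with surfactant. After ~10 days in greenhouse, injury rated visually against untreated controls, 0 (no effect) to 100 (complete control).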

morningglory = test: Test C pre-/postemergence herbicide test; format: in vivo, Ipomoea coccinea
Method in brief: as §1

barnyardgrass [2] = test: Test A pre-/postemergence herbicide test; format: in vivo, Echinochloa crus-galli; settings: for pest or weed control at 500 g/ha: 0 to 100 scale (0 no effect, 100 complete control)
Method in brief: as §2

ryegrass, Italian = test: Test C pre-/postemergence herbicide test; format: in vivo, Lolium multiflorum
Method in brief: as §1

ducksalad = test: Test B flooded paddy test; format: in vivo, Heteranthera limosa; settings: Flood, scale of 0 to 100 where 0 is no effect and 100 is complete control
Method in brief: (§3)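 Treatment was made at the 2-leaf stage by dosing the standing floodwater, kept 3 cm above soil level for the whole test. Greenhouse exposure lasted 13 to 15 days. Response is a visual percent rating relative to controls, where a dash indicates no test result.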

barnyardgrass [3] = test: Test B flooded paddy test; format: in vivo, Echinochloa crus-galli; settings: Flood, scale of 0 to 100 where 0 is no effect and 100 is complete control
Method in brief: as §3

waterhemp = test: Test C pre-/postemergence herbicide test; format: in vivo, Amaranthus rudis
Method in brief: as §1

rice = test: Test B flooded paddy test; format: in vivo, Oryza sativa; settings: Flood, scale of 0 to 100 where 0 is no effect and 100 is complete control
Method in brief: as §3

oat, wild = test: Test C pre-/postemergence herbicide test; format: in vivo, Avena fatua; settings: Postemergence
Method in brief: as §1

nutsedge, yellow = test: Test C pre-/postemergence herbicide test; format: in vivo, Cyperus esculentus
Method in brief: as §1

[4] = Postemergence, 31 g ai/ha, scale 0 to 100 (0 no effect, 100 complete control)
[5] = Postemergence, 62 g ai/ha, scale 0 (no effect) to 100 (complete control)
[6] = Postemergence, 125 g ai/ha, scale 0 to 100 (0 no effect, 100 complete control)
[7] = Postemergence, 250 g ai/ha, scale 0 to 100 (0 no effect, 100 complete control)
[8] = Preemergence, 62 g ai/ha, scale 0 to 100
[9] = Preemergence, 125 g ai/ha, scale 0 to 100 (0 no effect, 100 complete control)
[10] = Preemergence, 31 g ai/ha, scale 0 to 100, 0 is no effect and 100 is complete control
[11] = Preemergence, 62 g ai/ha, scale 0 to 100 (0 no effect, 100 complete control)
[12] = 125 g ai/ha, visual rating, 0 to 100 scale, 0 no effect, 100 complete control, approximately 10 days, preemergence
[13] = Postemergence, 125 g ai/ha, 0 to 100 scale, 0 is no effect, 100 is complete control
[14] = preemergence, 500 g ai/ha, 0 to 100 scale, 0 is no effect and 100 is complete control
[15] = 125 g ai/ha, scale 0 to 100 (0 no effect, 100 complete control)
[16] = 250 g ai/ha, scale 0 to 100 (0 no effect, 100 complete control)
[17] = Postemergence, 31 g ai/ha, scale 0 (no effect) to 100 (complete control)
[18] = Postemergence, 62 g ai/ha, scale 0 to 100 (0 no effect, 100 complete control)
[19] = Preemergence, 125 g ai/ha, visual rating on 0 to 100 scale (0 no effect, 100 complete control)

O=C1NCC(c2ccc(C(F)(F)F)cc2)C1C(=O)Nc1cccc(F)c1F (racemic) [Compound 202]
Plant response rating, Barnyardgrass (barnyardgrass [1]; [4]): 25 | Plant response rating, Barnyardgrass (barnyardgrass [1]; [5]): 65 | Plant response rating, Barnyardgrass (barnyardgrass [1]; [6]): 65 | Plant response rating, Barnyardgrass (barnyardgrass [1]; [7]): 85 | Barnyardgrass plant response rating (barnyardgrass [1]; Preemergence, 31 g ai/ha): 90 | Plant response rating, Barnyardgrass (barnyardgrass [1]; [8]): 90 | Plant response rating, Barnyardgrass (barnyardgrass [1]; [9]): 95 | Plant response rating (scale of 0 to 100; 0 is no effect, 100 is complete control), Barnyardgrass (barnyardgrass [1]; Preemergence, 250 g ai/ha): 95 | Plant response rating, Soybean (soybean; [4]): 0 | Plant response rating, Soybean (soybean; [5]): 0 | Plant response rating, Soybean (soybean; [6]): 5 | Plant response rating, Soybean (soybean; [7]): 10 | Soybean plant response rating (soybean; [10]): 0 | Soybean plant response rating (soybean; [11]): 25 | Plant response rating, Soybean (soybean; [9]): 0 | Plant response rating (scale of 0 to 100), Soybean (soybean; Preemergence, 250 g ai/ha): 10 | Plant response rating, Pigweed (pigweed; [12]): 60 | Plant response rating, Pigweed (pigweed; [13]): 70 | Pigweed plant response rating (0 to 100 scale, 0 is no effect, 100 is complete control) (pigweed; Postemergence, 500 g ai/ha): 80 | Plant response rating, Pigweed (pigweed; [14]): 70 | Plant response rating, Morningglory (morningglory; [4]): 5 | Plant response rating, Morningglory (morningglory; [5]): 10 | Plant response rating, Morningglory (morningglory; [6]): 70 | Plant response rating, Morningglory (morningglory; [7]): 10 | Morningglory plant response rating (morningglory; [10]): 15 | Morningglory plant response rating (morningglory; [11]): 25 | Plant response rating, Morningglory (morningglory; [9]): 25 | Plant response rating (scale of 0 to 100), Morningglory (morningglory; Preemergence, 250 g ai/ha): 40 | Plant response rating, Barnyardgrass (barnyardgrass [2]; [12]): 90 | Plant response rating, Barnyardgrass (barnyardgrass [2]; [13]): 80 | Barnyardgrass plant response rating (0 to 100 scale, 0 is no effect, 100 is complete control) (barnyardgrass [2]; Postemergence, 500 g ai/ha): 90 | Plant response rating, Barnyardgrass (barnyardgrass [2]; [14]): 90 | Plant response rating, Ryegrass, Italian (ryegrass, Italian; [4]): 0 | Plant response rating, Ryegrass, Italian (ryegrass, Italian; [5]): 0 | Plant response rating, Ryegrass, Italian (ryegrass, Italian; [6]): 5 | Plant response rating, Ryegrass, Italian (ryegrass, Italian; [7]): 35 | Ryegrass, Italian plant response rating (ryegrass, Italian; [10]): 0 | Ryegrass, Italian plant response rating (ryegrass, Italian; [11]): 30 | Plant response rating, Ryegrass, Italian (ryegrass, Italian; [9]): 30 | Plant response rating (scale of 0 to 100), Ryegrass, Italian (ryegrass, Italian; Preemergence, 250 g ai/ha): 5 | Plant response rating, Ducksalad (ducksalad; 500 g ai/ha): 100 | Plant response rating, Barnyardgrass (barnyardgrass [3]; 500 g ai/ha): 65 | Plant response rating, Waterhemp (waterhemp; [4]): 60 | Plant response rating, Waterhemp (waterhemp; [5]): 65 | Plant response rating, Waterhemp (waterhemp; [6]): 75 | Plant response rating, Waterhemp (waterhemp; [7]): 85 | Waterhemp plant response rating (waterhemp; [10]): 85 | Waterhemp plant response rating (waterhemp; [11]): 95 | Plant response rating, Waterhemp (waterhemp; [9]): 100 | Plant response rating (scale of 0 to 100), Waterhemp (waterhemp; Preemergence, 250 g ai/ha): 100 | Plant response rating, Rice (rice; 500 g ai/ha): 15 | Plant response rating, Oat, Wild (oat, wild; 31 g ai/ha, scale 0 to 100 (0 no effect, 100 complete control)): 0 | Plant response rating, Oat, Wild (oat, wild; 62 g ai/ha, scale 0 (no effect) to 100 (complete control)): 0 | Plant response rating, Oat, Wild (oat, wild; [15]): 30 | Plant response rating, Oat, Wild (oat, wild; [16]): 10 | Plant response rating, Nutsedge, Yellow (nutsedge, yellow; [4]): 0 | Plant response rating, Nutsedge, Yellow (nutsedge, yellow; [5]): 0 | Plant response rating, Nutsedge, Yellow (nutsedge, yellow; [6]): 0 | Plant response rating, Nutsedge, Yellow (nutsedge, yellow; [7]): 0 | Nutsedge, Yellow plant response rating (nutsedge, yellow; [10]): 0 | Nutsedge, Yellow plant response rating (nutsedge, yellow; [11]): 0 | Plant response rating, Nutsedge, Yellow (nutsedge, yellow; [9]): 0 | Plant response rating (scale of 0 to 100), Nutsedge, Yellow (nutsedge, yellow; Preemergence, 250 g ai/ha): 0

O=C1NCC(c2ccc(C(F)(F)F)cc2)C1C(=O)Nc1ccccc1F (stereo not drawn) [Compound 79, N-(2-fluorophenyl)-2-oxo-4-[4-(trifluoromethyl)phenyl]-3-pyrrolidinecarboxamide]
Plant response rating, Barnyardgrass (barnyardgrass [1]; [17]): 0 | Plant response rating, Barnyardgrass (barnyardgrass [1]; [18]): 0 | Plant response rating, Barnyardgrass (barnyardgrass [1]; [6]): 35 | Plant response rating, Barnyardgrass (barnyardgrass [1]; [7]): 60 | Barnyardgrass plant response rating (barnyardgrass [1]; Preemergence, 31 g ai/ha): 40 | Plant response rating, Barnyardgrass (barnyardgrass [1]; [8]): 95 | Plant response rating, Barnyardgrass (barnyardgrass [1]; [9]): 95 | Plant response rating (scale of 0 to 100; 0 is no effect, 100 is complete control), Barnyardgrass (barnyardgrass [1]; Preemergence, 250 g ai/ha): 98 | Plant response rating, Soybean (soybean; [17]): 0 | Plant response rating, Soybean (soybean; [18]): 0 | Plant response rating, Soybean (soybean; [6]): 10 | Plant response rating, Soybean (soybean; [7]): 10 | Soybean plant response rating (soybean; [10]): 0 | Plant response rating, Soybean (soybean; [8]): 0 | Plant response rating, Soybean (soybean; [9]): 0 | Plant response rating (scale of 0 to 100), Soybean (soybean; Preemergence, 250 g ai/ha): 0 | pest or weed control at 125 g/ha (pigweed; Amaranthus retroflexus, post-emergence, 240 h, Postemergence, 125 g ai/ha, 0 to 100 scale, 0 no effect, 100 complete control, read-out: Plant response rating, Pigweed): 70% | pest or weed control at 500 g/ha (pigweed; Amaranthus retroflexus, post-emergence, 240 h, Postemergence, 500 g ai/ha, 0 to 100 scale (0 no effect, 100 complete control), read-out: Plant response rating, Pigweed): 70% | pest or weed control at 500 g/ha (pigweed; Amaranthus retroflexus, pre-emergence, 240 h, preemergence, 500 g ai/ha, 0 to 100 scale, read-out: Plant response rating, Pigweed): 80% | Pigweed plant response rating (pigweed; [19]): 80 | Plant response rating, Morningglory (morningglory; [17]): 0 | Plant response rating, Morningglory (morningglory; [18]): 0 | Plant response rating, Morningglory (morningglory; [6]): 5 | Plant response rating, Morningglory (morningglory; [7]): 5 | Morningglory plant response rating (morningglory; [10]): 0 | Plant response rating, Morningglory (morningglory; [8]): 0 | Plant response rating, Morningglory (morningglory; [9]): 0 | Plant response rating (scale of 0 to 100), Morningglory (morningglory; Preemergence, 250 g ai/ha): 0 | pest or weed control at 125 g/ha (barnyardgrass [2]; Echinochloa crus-galli, post-emergence, 240 h, Postemergence, 125 g ai/ha, 0 to 100 scale, 0 no effect, 100 complete control, read-out: Plant response rating, Barnyardgrass): 80% | pest or weed control at 500 g/ha (barnyardgrass [2]; Echinochloa crus-galli, post-emergence, 240 h, Postemergence, 500 g ai/ha, read-out: Plant response rating, Barnyardgrass): 90% | pest or weed control at 500 g/ha (barnyardgrass [2]; Echinochloa crus-galli, pre-emergence, 240 h, preemergence, 500 g ai/ha, read-out: Plant response rating, Barnyardgrass): 90% | Barnyardgrass plant response rating (barnyardgrass [2]; [19]): 80 | Plant response rating, Ryegrass, Italian (ryegrass, Italian; [17]): 0 | Plant response rating, Ryegrass, Italian (ryegrass, Italian; [18]): 0 | Plant response rating, Ryegrass, Italian (ryegrass, Italian; [6]): 0 | Plant response rating, Ryegrass, Italian (ryegrass, Italian; [7]): 0 | Ryegrass, Italian plant response rating (ryegrass, Italian; [10]): 0 | Plant response rating, Ryegrass, Italian (ryegrass, Italian; [8]): 5 | Plant response rating, Ryegrass, Italian (ryegrass, Italian; [9]): 30 | Plant response rating (scale of 0 to 100), Ryegrass, Italian (ryegrass, Italian; Preemergence, 250 g ai/ha): 30 | Plant response rating, Ducksalad (ducksalad; 250 g ai/ha): 90 | Plant response rating, Barnyardgrass (barnyardgrass [3]; 250 g ai/ha): 0 | Plant response rating, Waterhemp (waterhemp; [17]): 10 | Plant response rating, Waterhemp (waterhemp; [18]): 10 | Plant response rating, Waterhemp (waterhemp; [6]): 10 | Plant response rating, Waterhemp (waterhemp; [7]): 30 | Waterhemp plant response rating (waterhemp; [10]): 25 | Plant response rating, Waterhemp (waterhemp; [8]): 40 | Plant response rating, Waterhemp (waterhemp; [9]): 80 | Plant response rating (scale of 0 to 100), Waterhemp (waterhemp; Preemergence, 250 g ai/ha): 85 | Plant response rating, Rice (rice; 250 g ai/ha): 0 | Plant response rating, Oat, Wild (oat, wild; 31 g ai/ha, scale 0 (no effect) to 100 (complete control)): 0 | Plant response rating, Oat, Wild (oat, wild; 62 g ai/ha, scale 0 to 100 (0 no effect, 100 complete control)): 0 | Plant response rating, Oat, Wild (oat, wild; [15]): 0 | Plant response rating, Oat, Wild (oat, wild; [16]): 0 | Plant response rating, Nutsedge, Yellow (nutsedge, yellow; [17]): 0 | Plant response rating, Nutsedge, Yellow (nutsedge, yellow; [18]): 0 | Plant response rating, Nutsedge, Yellow (nutsedge, yellow; [6]): 0 | Plant response rating, Nutsedge, Yellow (nutsedge, yellow; [7]): 0 | Nutsedge, Yellow plant response rating (nutsedge, yellow; [10]): 0 | Plant response rating, Nutsedge, Yellow (nutsedge, yellow; [8]): 0 | Plant response rating, Nutsedge, Yellow (nutsedge, yellow; [9]): 0 | Plant response rating (scale of 0 to 100), Nutsedge, Yellow (nutsedge, yellow; Preemergence, 250 g ai/ha): 0
